IC50 data for 22 molecules are collected here from patent US6967196B1, “Sulfonamide compounds and uses thereof” (Bristol-Myers Squibb Company, priority 1999, dated 2005).

Where a name gives a salt, the structure may show the parent alone.

One experiment deals with amyloid β production in transfected H4 (human neuroglioma) cells stably expressing APP constructs. Put plainly: In vitro cell-based assay of inhibitors of amyloid β production (ELISA). Conditions: Homo sapiens, 16 h, transfected H4 cells stably expressing APP; approximately 16 hours incubation; amyloid β in medium by ELISA; Table B; read-out: ACTIVITY (IC50, inhibition of amyloid β production). The gist of the method: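 H4 neuroglioma cells stably expressing APP constructs were dosed in fresh medium, screened initially at 10-100 μM, and incubated ~16 h. Medium Aβ was measured by ELISA with C-terminal-epitope capture and N-terminal detection antibodies, quantified from a standard curve, with dose-response testing of actives.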
For orientation: An ELISA detects its analyte on a solid surface through an enzyme-linked reagent.
What is called IC50 is the concentration needed to halve the response being measured. As to `C[C@H](c1ccccc1CCC(=O)NCc1ccco1)N(c1cc(F)ccc1F)S(=O)(=O)c1ccc(Cl)cc1` [Example 404, 3-[2-((1R)-1-{[(4-chlorophenyl)sulfonyl]-2,5-difluoroanilino}ethyl)phenyl]-N-(2-furylmethyl)propanamide], the IC50 fell in the range of 50 to 100 nM.
For `C[C@H](c1ccc(F)cc1CN1CCS(=O)(=O)CC1)N(c1cc(F)ccc1F)S(=O)(=O)c1ccc(Cl)cc1` [Example 405], the IC50 fell in the range of 50 to 100 nM.
Consider `C[C@H](c1ccccc1CCC(=O)NC1CCCc2ccccc21)N(c1cc(F)ccc1F)S(=O)(=O)c1ccc(Cl)cc1` (stereo partly drawn) [Example 406, 3-[2-((1R)-1-{[(4-chlorophenyl)sulfonyl]-2,5-difluoroanilino}ethyl)phenyl]-N-(1,2,3,4-tetrahydro-1-naphthalenyl)propanamide], for which the half-maximal inhibitory concentration (IC50) was in the range of 50 to 100 nM.
In the case of `O=S(=O)(c1ccc(Cl)cc1)N(Cc1ccccc1OCCC[S+]([O-])C1CCCCC1)c1cc(F)ccc1F` (stereo not shown) [Example 407, 4-chloro-N-{2-[3-(cyclohexylsulfinyl)propoxy]benzyl}-N-(2,5-difluorophenyl)benzenesulfonamide], the IC50 lay in the range of 50 to 100 nM.
In the case of `CC(c1ccccc1OCCCNC(=O)c1c(F)cccc1F)N(c1cc(F)ccc1F)S(=O)(=O)c1ccc(Cl)cc1` (stereo not shown) [Example 408, N-{3-[2-(1-{[(4-chlorophenyl)sulfonyl]-2,5-difluoroanilino}ethyl)phenoxy]propyl}-2,6-difluorobenzamide], the IC50 lay in the range of 50 to 100 nM.
On to `CC(c1ccccc1OCCCN(C)S(=O)(=O)c1ccc([N+](=O)[O-])cc1)N(c1cc(F)ccc1F)S(=O)(=O)c1ccc(Cl)cc1` (stereo not shown) [Example 410, 4-chloro-N-(2,5-difluorophenyl)-N-{1-[2-(3-{methyl[(4-nitrophenyl)sulfonyl]amino}propoxy)phenyl]ethyl}benzenesulfonamide], for which the IC50 was 50 to 100 nM.
Still for that read-out and setting: next, `CCN(CCOc1ccccc1C(C)N(c1cc(F)ccc1F)S(=O)(=O)c1ccc(Cl)cc1)C(=O)CSc1ccccc1` (stereo not shown) [Example 417, N-{2-[2-(1-{[(4-chlorophenyl)sulfonyl]-2,5-difluoroanilino}ethyl)phenoxy]ethyl}-N-ethyl-2-(phenylsulfanyl)acetamide]: 50 to 100 nM; `C[C@H](c1ccc(F)cc1CCOC(=O)NCc1ccc(F)cc1)N(c1cc(F)ccc1F)S(=O)(=O)c1ccc(Cl)cc1` [Example 419, 2-[2-((1R)-1-{[(4-chlorophenyl)sulfonyl]-2,5-difluoroanilino}ethyl)-5-fluorophenyl]ethyl 4-fluorobenzylcarbamate]: 50 to 100 nM.
`CC(c1ccccc1OCCCN(C)C(=O)CCC1CCCC1)N(c1cc(F)ccc1F)S(=O)(=O)c1ccc(Cl)cc1` (stereo not shown) [Example 428, N-{3-[2-(1-{[(4-chlorophenyl)sulfonyl]-2,5-difluoroanilino}ethyl)phenoxy]propyl}-3-cyclopentyl-N-methylpropanamide]: the IC50 lay in the range of 50 to 100 nM.
Turning to `C[C@H](c1ccc(F)cc1CCOC(=O)NCc1ccco1)N(c1cc(F)ccc1F)S(=O)(=O)c1ccc(Cl)cc1` [Example 435, 2-[2-((1R)-1-{[(4-chlorophenyl)sulfonyl]-2,5-difluoroanilino}ethyl)-5-fluorophenyl]ethyl 2 furylmethylcarbamate], the IC50 is 50 to 100 nM.
Regarding `C[C@H](c1ccccc1Cn1ccnc1)N(c1cc(F)ccc1F)S(=O)(=O)c1ccc(Cl)cc1` [Example 438, 4-chloro-N-(2,5-difluorophenyl)-N-{(1R)-1-[2-(1H-imidazol-1-ylmethyl)phenyl]ethyl}benzenesulfonamide hydrochloride], the IC50 lay within 50 to 100 nM.

Staying with this experiment, now noted: transfected H4 cells stably expressing APP; approximately 16 hours incubation; amyloid β in medium by ELISA; Table B; read-out: ACTIVITY (IC50, inhibition of amyloid β production).
Consider `COC(=O)CCS(=O)(=O)Cc1cc(F)ccc1[C@@H](C)N(c1cc(F)ccc1F)S(=O)(=O)c1ccc(Cl)cc1` [Example 466, Methyl 3-{[2-((1R)-1-{[(4-chlorophenyl)sulfonyl]-2,5-difluoroanilino}ethyl)-5-fluorobenzyl]sulfonyl}propanoate], for which the 50% inhibitory concentration (IC50) fell in the range of 50 to 100 nM.
The same measure, in the same setting: next, `C[C@H](c1ccc(F)cc1CS(=O)(=O)CCC(=O)O)N(c1cc(F)ccc1F)S(=O)(=O)c1ccc(Cl)cc1` [Example 467, 3-{[2-((1R)-1-{[(4-chlorophenyl)sulfonyl]-2,5-difluoroanilino}ethyl)-5-fluorobenzyl]sulfonyl}propanoic Acid]: 50 to 100 nM.
Turning to `COC(=O)[C@H](CSCc1cc(F)ccc1[C@@H](C)N(c1cc(F)ccc1F)S(=O)(=O)c1ccc(Cl)cc1)NC(=O)OC(C)(C)C` [Example 468, Methyl (2R)-2-[(tert-butoxycarbonyl)amino]-3-{[2-((1R)-1-{[(4-chlorophenyl)sulfonyl]-2,5-difluoroanilino}ethyl)-5-fluorobenzyl]sulfanyl}propanoate], the IC50 was in the range of 50 to 100 nM.
With `COC(=O)[C@H](CS(=O)(=O)Cc1cc(F)ccc1[C@@H](C)N(c1cc(F)ccc1F)S(=O)(=O)c1ccc(Cl)cc1)NC(=O)OC(C)(C)C` [Example 469, Methyl (2R)-2-[(tert-butoxycarbonyl)amino]-3-{[2-((1R)-1-{[(4-chlorophenyl)sulfonyl]-2,5-difluoroanilino}ethyl)-5-fluorobenzyl]sulfonyl}propanoate], the IC50 was 50 to 100 nM.
Still for that read-out and setting: next, `COC(=O)C(N)CS(=O)(=O)Cc1cc(F)ccc1[C@@H](C)N(c1cc(F)ccc1F)S(=O)(=O)c1ccc(Cl)cc1` (stereo partly drawn) [Example 470, Methyl 2-amino-3-{[2-(1R)-1-{[(4-chlorophenyl)sulfonyl]-2,5-difluoroanilino}ethyl)-5-fluorobenzyl]sulfonyl}propanoate Hydrochloride]: 50 to 100 nM.
Still for that read-out and setting: next, `COC(=O)[C@@H](CS(=O)(=O)Cc1cc(F)ccc1[C@@H](C)N(c1cc(F)ccc1F)S(=O)(=O)c1ccc(Cl)cc1)NC(=O)OC(C)(C)C` [Example 471, Methyl (2S)-2-[(tert-butoxycarbonyl)amino]-3-{[2-((1R)-1-{[(4-chlorophenyl)sulfonyl]-2,5-difluoroanilino}ethyl)-5-fluorobenzyl]sulfonyl}propanoate]: 50 to 100 nM; `COC(=O)CCSCCc1cc(F)ccc1[C@@H](C)N(c1cc(F)ccc1F)S(=O)(=O)c1ccc(Cl)cc1` [Example 473]: 50 to 100 nM; `COC(=O)CCS(=O)(=O)CCc1cc(F)ccc1[C@@H](C)N(c1cc(F)ccc1F)S(=O)(=O)c1ccc(Cl)cc1` [Example 474, Methyl 3-({2-[2-((1R)-1-{[(4-chlorophenyl)sulfonyl]-2,5-difluoroanilino}ethyl)-5-fluorophenyl]ethyl}sulfonyl)propanoate]: 100 to 500 nM.
For `C[C@H](c1ccc(F)cc1CCS(=O)(=O)CCC(=O)O)N(c1cc(F)ccc1F)S(=O)(=O)c1ccc(Cl)cc1` [Example 475, 3-({2-[2-((1R)-1-{[(4-chloro-phenyl)sulfonyl]-2,5-difluoroanilino}ethyl)-5-fluorophenyl]ethyl}sulfonyl)propanoic Acid], the IC50 lay within 100 to 500 nM.
`COC(=O)C[S+]([O-])CCc1cc(F)ccc1[C@@H](C)N(c1cc(F)ccc1F)S(=O)(=O)c1ccc(Cl)cc1` (stereo partly drawn) [Example 476, Methyl ({2-[2-((1R)-1-{[(4-chlorophenyl)sulfonyl]-2,5-difluoroanilino}ethyl)-5-fluorophenyl]ethyl}sulfinyl)acetate]: the IC50 lay within 100 to 500 nM.
Same read-out and setting: next, `COC(=O)CSCCc1cc(F)ccc1[C@@H](C)N(c1cc(F)ccc1F)S(=O)(=O)c1ccc(Cl)cc1` [Example 477, Methyl ({2-[2-((1R)-1-[[(4-chlorophenyl)sulfonyl]-2,5-difluoroanilino}ethyl)-5-fluorophenyl]ethyl}sulfanyl)acetate]: 100 to 500 nM.
